Activity calls are given as the source filed them. No rule for the calls is given here.
Tested on: CCRIS mutagenicity, Ames/micronucleus/aberration tests
Experiment: CCRIS mutagenicity studies
[1] = Test System: AMES SALMONELLA TYPHIMURIUM, Strain/Indicator: TA100, Metabolic Activation: NONE, Method: STANDARD PLATE

CC(=O)Nc1ccc(NC(C)=O)cc1
mutagenic call (Test System: Ames Salmonella typhimurium, Strain/Indicator: TA98, Metabolic Activation: None, Method: Standard Plate): inactive; negative
mutagenic call (Test System: Ames Salmonella typhimurium, Strain/Indicator: TA100, Metabolic Activation: None, Method: Standard Plate): inactive; negative
mutagenic call (Test System: Ames Salmonella typhimurium, Strain/Indicator: TA102, Metabolic Activation: None, Method: Standard Plate): inactive; negative
mutagenic call (Test System: Ames Salmonella typhimurium, Strain/Indicator: TA1535, Metabolic Activation: None, Method: Standard Plate): inactive; negative
mutagenic call (Test System: Ames Salmonella typhimurium, Strain/Indicator: TA1537, Metabolic Activation: None, Method: Standard Plate): inactive; negative

O=NN1CCCCCC1
mutagenic call (Test System: AMES SALMONELLA TYPHIMURIUM, Strain/Indicator: TA100, Metabolic Activation: RABBIT, LIVER, S-9, Method: PREINCUBATION): active; positive
mutagenic call (Test System: AMES SALMONELLA TYPHIMURIUM, Strain/Indicator: TA100, Metabolic Activation: RABBIT, LUNG MACROPHAGES, Method: PREINCUBATION): inactive; negative
mutagenic call (Test System: AMES SALMONELLA TYPHIMURIUM, Strain/Indicator: TA100, Metabolic Activation: RABBIT, LUNG, CLARA CELLS, Method: PREINCUBATION): inactive; negative
mutagenic call (Test System: AMES SALMONELLA TYPHIMURIUM, Strain/Indicator: TA100, Metabolic Activation: RABBIT, LUNG, TYPE II CELLS, Method: PREINCUBATION): inactive; negative
mutagenic call (Test System: AMES SALMONELLA TYPHIMURIUM, Strain/Indicator: TA1530, Metabolic Activation: RABBIT, LIVER, S-9, Method: PREINCUBATION): active; positive
mutagenic call (Test System: AMES SALMONELLA TYPHIMURIUM, Strain/Indicator: TA1530, Metabolic Activation: RABBIT, LUNG MACROPHAGES, Method: PREINCUBATION): inactive; negative
mutagenic call (Test System: AMES SALMONELLA TYPHIMURIUM, Strain/Indicator: TA1530, Metabolic Activation: RABBIT, LUNG, CLARA CELLS, Method: PREINCUBATION): inactive; negative
mutagenic call (Test System: AMES SALMONELLA TYPHIMURIUM, Strain/Indicator: TA1530, Metabolic Activation: RABBIT, LUNG, TYPE II CELLS, Method: PREINCUBATION): inactive; negative
mutagenic call (Test System: UDS RABBIT LUNG CLARA CELLS, Strain/Indicator: THY INCORP, Metabolic Activation: NONE, Method: LIQUID SCINTILLATION COUNTING): active; positive
mutagenic call (Test System: UDS RABBIT LUNG MACROPHAGES, Strain/Indicator: THY INCORP, Metabolic Activation: NONE, Method: LIQUID SCINTILLATION COUNTING): inactive; negative
mutagenic call (Test System: UDS RABBIT LUNG TYPE II CELLS, Strain/Indicator: THY INCORP, Metabolic Activation: NONE, Method: LIQUID SCINTILLATION COUNTING): inactive; negative

CC(Br)C(=O)NCc1ccccc1 (configuration not stated)
mutagenic call (Test System: AMES SALMONELLA TYPHIMURIUM, Strain/Indicator: TA100, Metabolic Activation: MOUSE, LIVER, S-9, AROCLOR 1254, Method: STANDARD PLATE): active; positive
mutagenic call [1]: active; positive

CC(C)(C)c1ccc(-c2ccc(N=O)cc2)cc1
mutagenic call (Test System: AMES SALMONELLA TYPHIMURIUM, Strain/Indicator: TA98, Metabolic Activation: NONE, Method: STANDARD PLATE): active; positive
mutagenic call (Test System: AMES SALMONELLA TYPHIMURIUM, Strain/Indicator: TA98, Metabolic Activation: S-9, Method: STANDARD PLATE): active; positive
mutagenic call [1]: active; positive
mutagenic call (Test System: AMES SALMONELLA TYPHIMURIUM, Strain/Indicator: TA100, Metabolic Activation: S-9, Method: STANDARD PLATE): active; positive

CO[C@@]1(NC(=O)CSC[C@@H](N)C(=O)O)C(=O)N2C(C(=O)O)=C(CSc3nnnn3C)CS[C@@H]21
mutagenic call (Test System: AMES SALMONELLA TYPHIMURIUM, Strain/Indicator: TA98, Metabolic Activation: NONE): inactive; negative
mutagenic call (Test System: AMES SALMONELLA TYPHIMURIUM, Strain/Indicator: TA98, Metabolic Activation: S-9): inactive; negative
mutagenic call (Test System: AMES SALMONELLA TYPHIMURIUM, Strain/Indicator: TA100, Metabolic Activation: NONE): inactive; negative
mutagenic call (Test System: AMES SALMONELLA TYPHIMURIUM, Strain/Indicator: TA100, Metabolic Activation: S-9): inactive; negative
mutagenic call (Test System: AMES SALMONELLA TYPHIMURIUM, Strain/Indicator: TA1535, Metabolic Activation: NONE): inactive; negative
mutagenic call (Test System: AMES SALMONELLA TYPHIMURIUM, Strain/Indicator: TA1535, Metabolic Activation: S-9): inactive; negative
mutagenic call (Test System: AMES SALMONELLA TYPHIMURIUM, Strain/Indicator: TA1537, Metabolic Activation: NONE): inactive; negative
mutagenic call (Test System: AMES SALMONELLA TYPHIMURIUM, Strain/Indicator: TA1537, Metabolic Activation: S-9): inactive; negative
mutagenic call (Test System: AMES SALMONELLA TYPHIMURIUM, Strain/Indicator: TA1538, Metabolic Activation: NONE): inactive; negative
mutagenic call (Test System: AMES SALMONELLA TYPHIMURIUM, Strain/Indicator: TA1538, Metabolic Activation: S-9): inactive; negative
mutagenic call (Test System: E. COLI, Strain/Indicator: WP2 UVRA, Metabolic Activation: NONE): inactive; negative
mutagenic call (Test System: E. COLI, Strain/Indicator: WP2 UVRA, Metabolic Activation: S-9): inactive; negative

COCC(O)Cn1cc([N+](=O)[O-])nc1C (configuration not stated)
mutagenic call (Test System: E. COLI, Strain/Indicator: CM561 EXRA, Metabolic Activation: NONE, Method: SUSPENSION/PLATE): active; positive
mutagenic call (Test System: E. COLI, Strain/Indicator: CM561 EXRA, Metabolic Activation: RAT, LIVER, S-9, AROCLOR 1254, Method: SUSPENSION/PLATE): inactive; negative
mutagenic call (Test System: E. COLI, Strain/Indicator: CM611 UVRA EXRA, Metabolic Activation: NONE, Method: SUSPENSION/PLATE): active; positive
mutagenic call (Test System: E. COLI, Strain/Indicator: CM611 UVRA EXRA, Metabolic Activation: RAT, LIVER, S-9, AROCLOR 1254, Method: SUSPENSION/PLATE): active; positive

O=[N+]([O-])C(Cl)Br (configuration not stated)
mutagenic call (Test System: Ames Salmonella typhimurium, Strain/Indicator: RSJ100, Metabolic Activation: None, Method: Standard plate): active; positive (weak)
mutagenic call (Test System: Ames Salmonella typhimurium, Strain/Indicator: RSJ100, Metabolic Activation: Rat, Liver, S-9, Aroclor, Method: Standard plate): inactive; negative
mutagenic call (Test System: Ames Salmonella typhimurium, Strain/Indicator: TA98, Metabolic Activation: None, Method: Standard plate): active; positive (weak)
mutagenic call (Test System: Ames Salmonella typhimurium, Strain/Indicator: TA98, Metabolic Activation: Rat, Liver, S-9, Aroclor, Method: Standard plate): inactive; negative
mutagenic call (Test System: Ames Salmonella typhimurium, Strain/Indicator: TA100, Metabolic Activation: None, Method: Standard plate): inactive; negative
mutagenic call (Test System: Ames Salmonella typhimurium, Strain/Indicator: TA100, Metabolic Activation: Rat, Liver, S-9, Aroclor, Method: Standard plate): active; positive
mutagenic call (Test System: Ames Salmonella typhimurium, Strain/Indicator: TA104, Metabolic Activation: None, Method: Standard plate): inactive; negative
mutagenic call (Test System: Ames Salmonella typhimurium, Strain/Indicator: TA104, Metabolic Activation: Rat, Liver, S-9, Aroclor, Method: Standard plate): inactive; negative
mutagenic call (Test System: Ames Salmonella typhimurium, Strain/Indicator: TPT100, Metabolic Activation: None, Method: Standard plate): inactive; negative
